Test results reported in patent US12024531B2, “Immunoproteasome inhibitors” (Principia Biopharma Inc., priority 2017, dated 2024).
pIC50: −log10 of the molar value.

What was measured:
Assay type in all cases: biochemical
[1] = biological target: immunoproteasome LMP7/B5i subunit (Homo sapiens, UniProt P28062); assay: Caliper-based proteasome enzymatic activity assay, LMP7; conditions: human recombinant immunoproteasome 0.3 nM, FAM peptide substrate 1 μM, rt 3 h
[2] = biological target: constitutive proteasome β5c subunit (Homo sapiens, UniProt P28074); assay: Caliper-based proteasome enzymatic activity assay, β5c; conditions: human recombinant constitutive proteasome 0.3 nM, FAM peptide substrate 1 μM, rt 3 h
[3] = biological target: immunoproteasome LMP2 subunit (Homo sapiens, UniProt P28065); assay: Caliper-based proteasome enzymatic activity assay, LMP2; conditions: human recombinant immunoproteasome 0.3 nM, FAM peptide substrate 1 μM, rt 2 h

Compound | pIC50 [1] | pIC50 [2] | pIC50 [3]
CC(C)N(C(=O)C(C#N)=Cc1cccc(CCOC(=O)N[C@@H](Cc2ccccc2)B(O)O)c1)C(C)C (single isomer, unassigned) [Example 74] | 7.57 | < 5.30 | 5.56
CC(C)N(C(=O)C(C#N)=Cc1cccc(CCOC(=O)N[C@@H](Cc2ccccc2)B(O)O)c1)C(C)C (single isomer, unassigned) [Example 75] | 8.85 | 5.52 | 5.60
CC(C)(C)NC(=O)C(C#N)=Cc1cccc(CC[C@H](NC(=O)c2cnccn2)C(=O)N[C@@H](Cc2ccccc2)B(O)O)c1 [Example 1, ((R)-1-((S)-4-(3-(3-(tert-butylamino)-2-cyano-3-oxoprop-1-en-1-yl)phenyl)-2-(pyrazine-2-carboxamido)butanamido)-2-phenylethyl)boronic Acid] | 8.22 | 7.49 | –
CC(C)(C)NC(=O)C(C#N)=Cc1cccc(CCC(=O)N[C@@H](Cc2ccccc2)B(O)O)c1 [Example 3, (R)-(1-(3-(3-(3-(tert-butylamino)-2-cyano-3-oxoprop-1-en-1-yl)phenyl)propanamido)-2-phenylethyl)boronic Acid] | 8.00 | 6.92 | –
CC(C)(C)NC(=O)C(C#N)=Cc1cccc(CC[C@H](NC(=O)c2cc(Cl)ccc2Cl)C(=O)N[C@@H](Cc2ccccc2)B(O)O)c1 [Example 4, (R)-1-((S)-4-(3-(3-(tert-butylamino)-2-cyano-3-oxoprop-1-enyl)phenyl)-2-(2,5-dichlorobenzamido)butanamido)-2-phenylethylboronic Acid] | 9.00 | 8.15 | 7.80
CN(C)C(=O)C(C#N)=Cc1cccc(OCCC(=O)N[C@@H](Cc2ccccc2)B(O)O)c1 [Example 5, (R)-1-(3-(3-(2-cyano-3-(dimethylamino)-3-oxoprop-1-enyl)phenoxy)propanamido)-2-phenylethylboronic Acid] | 8.52 | 7.02 | 6.85
CCN(CC)C(=O)C(C#N)=Cc1cccc(OCCC(=O)N[C@@H](Cc2ccccc2)B(O)O)c1 [Example 7, (R)-1-(3-(3-(2-cyano-3-(diethylamino)-3-oxoprop-1-enyl)phenoxy)propanamido)-2-phenylethylboronic Acid] | 8.30 | 7.22 | 6.30
CCc1cccc(C[C@H](NC(=O)CCOc2cccc(C=C(C#N)C(=O)NC(C)(C)C)c2)B(O)O)c1 [Example 8, (R)-(1-(3-(3-(3-(tert-butylamino)-2-cyano-3-oxoprop-1-en-1-yl)phenoxy)propanamido)-2-(3-ethylphenyl)ethyl)boronic Acid] | 7.80 | 6.38 | –
N#CC(=Cc1cccc(OCCC(=O)N[C@@H](Cc2ccccc2)B(O)O)c1)C(=O)N1CCOCC1 [Example 9, (R)-1-(3-(3-(2-cyano-3-morpholino-3-oxoprop-1-enyl)phenoxy)propanamido)-2-phenylethylboronic Acid] | 8.10 | 7.00 | 6.09
N#CC(=Cc1cccc(OCCC(=O)N[C@@H](Cc2ccccc2)B(O)O)c1)C(=O)NC1CCOCC1 [Example 10, (R)-1-(3-(3-(2-cyano-3-oxo-3-(tetrahydro-2H-pyran-4-ylamino)prop-1-enyl)phenoxy)propanamido)-2-phenylethylboronic Acid] | 8.30 | 7.13 | 6.01
CC(C)NC(=O)C(C#N)=Cc1cccc(OCCC(=O)N[C@@H](Cc2ccccc2)B(O)O)c1 [Example 12, (R)-1-(3-(3-(2-cyano-3-(isopropylamino)-3-oxoprop-1-enyl)phenoxy)propanamido)-2-phenylethylboronic Acid] | 8.40 | 7.00 | –
CC(C)(C)C[C@H](NC(=O)CCOc1cccc(C=C(C#N)C(=O)NC(C)(C)C)c1)B(O)O [Example 13, (R)-1-(3-(3-(3-(tert-butylamino)-2-cyano-3-oxoprop-1-enyl)phenoxy)propanamido)-3,3-dimethylbutylboronic Acid] | 6.83 | 5.41 | –
CC(C)(C)NC(=O)C(C#N)=Cc1cccc(COC(=O)N[C@@H](Cc2ccccc2)B(O)O)c1 [Example 16, (R)-(1-((((3-(3-(tert-butylamino)-2-cyano-3-oxoprop-1-en-1-yl)benzyl)oxy)carbonyl)amino)-2-phenylethyl)boronic Acid] | 7.48 | 5.43 | 5.45
CC(C)(C)NC(=O)C(C#N)=Cc1ccc(F)c(OCCC(=O)N[C@@H](Cc2ccccc2)B(O)O)c1 [Example 18, (R)-(1-(3-(5-(3-(tert-butylamino)-2-cyano-3-oxoprop-1-en-1-yl)-2-fluorophenoxy)propanamido)-2-phenylethyl)boronic Acid] | 7.82 | 7.07 | –
CCN(C(=O)C(C#N)=Cc1cccc(CCOC(=O)N[C@@H](Cc2coc3ccccc23)B(O)O)c1)C1CCOCC1 [Example 95, (R)-(2-(benzofuran-3-yl)-1-(((3-(2-cyano-3-(ethyl(tetrahydro-2H-pyran-4-yl)amino)-3-oxoprop-1-en-1-yl)phenethoxy)carbonyl)amino)ethyl)boronic Acid] | 8.92 | 7.06 | –
CCN(CC)C(=O)C(C#N)=Cc1cccc(CCNC(=O)N[C@@H](Cc2coc3ccccc23)B(O)O)c1 [Example 96, (R)-(2-(benzofuran-3-yl)-1-(3-(3-(2-cyano-3-(diethylamino)-3-oxoprop-1-en-1-yl)phenethyl)ureido)ethyl)boronic Acid] | 8.68 | 6.48 | –
CCN(CC)C(=O)C(C#N)=Cc1cc(C#N)cc(CCOC(=O)N[C@@H](Cc2coc3ccccc23)B(O)O)c1 [Example 97, (R)-(2-(benzofuran-3-yl)-1-(((3-cyano-5-(2-cyano-3-(diethylamino)-3-oxoprop-1-en-1-yl)phenethoxy)carbonyl)amino)ethyl)boronic Acid] | 9.15 | 7.37 | –
C[C@@H]1COC[C@@H](C)N1C(=O)C(C#N)=Cc1cccc(CCOC(=O)N[C@@H](Cc2coc3ccccc23)B(O)O)c1 [Example 98, ((R)-2-(benzofuran-3-yl)-1-(((3-(2-cyano-3-((3R,5R)-3,5-dimethylmorpholino)-3-oxoprop-1-en-1-yl)phenethoxy)carbonyl)amino)ethyl)boronic Acid] | 9.30 | 7.15 | –
N#CC(=Cc1cccc(CCOC(=O)N[C@@H](Cc2ccccc2)B(O)O)c1)n1cncn1 [Example 99, (R)-(1-(((3-(2-cyano-2-(1H-1,2,4-triazol-1-yl)vinyl)phenethoxy)carbonyl)amino)-2-phenylethyl)boronic Acid] | 8.82 | 5.76 | –
CCN(C(=O)C(C#N)=Cc1cccc(CCNC(=O)N[C@@H](Cc2coc3ccccc23)B(O)O)c1)C1CCOCC1 [Example 100, (R)-(2-(benzofuran-3-yl)-1-(3-(3-(2-cyano-3-(ethyl(tetrahydro-2H-pyran-4-yl)amino)-3-oxoprop-1-en-1-yl)phenethyl)ureido)ethyl)boronic Acid] | 8.28 | 5.84 | –
CCN(C(=O)C(C#N)=Cc1cc(C#N)cc(CCOC(=O)N[C@@H](Cc2ccccc2)B(O)O)c1)C1CCOCC1 [Example 102, (R)-(1-(((3-cyano-5-(2-cyano-3-(ethyl(tetrahydro-2H-pyran-4-yl)amino)-3-oxoprop-1-en-1-yl)phenethoxy)carbonyl)amino)-2-phenylethyl)boronic Acid] | 8.66 | 5.81 | –
CCN(C(=O)C(C#N)=Cc1cc(C#N)cc(CCOC(=O)N[C@@H](Cc2ccc(C)cc2)B(O)O)c1)C1CCOCC1 [Example 103, (R)-(1-(((3-cyano-5-(2-cyano-3-(ethyl(tetrahydro-2H-pyran-4-yl)amino)-3-oxoprop-1-en-1-yl)phenethoxy)carbonyl)amino)-2-(p-tolyl)ethyl)boronic Acid] | 8.85 | 6.34 | –
CCN(CC)C(=O)C(C#N)=Cc1cc(C#N)cc(CCOC(=O)N[C@@H](Cc2ccccc2)B(O)O)c1 [Example 104, (R)-(1-(((3-cyano-5-(2-cyano-3-(diethylamino)-3-oxoprop-1-en-1-yl)phenethoxy)carbonyl)amino)-2-phenylethyl)boronic Acid] | 8.48 | 5.54 | –
CCN(C(=O)C(C#N)=Cc1ccc2c(c1)CN(CC(=O)N[C@@H](Cc1coc3ccccc13)B(O)O)CC2)C1CCOCC1 [Example 105, (R)-(2-(benzofuran-3-yl)-1-(2-(7-(2-cyano-3-(ethyl(tetrahydro-2H-pyran-4-yl)amino)-3-oxoprop-1-en-1-yl)-3,4-dihydroisoquinolin-2(1H)-yl)acetamido)ethyl)boronic Acid] | 8.80 | 7.68 | –
N#CC(=Cc1cccc(CCOC(=O)N[C@@H](CCc2ccccc2)B(O)O)c1)n1cncn1 [Example 106, (R)-(1-(((3-(2-cyano-2-(1H-1,2,4-triazol-1-yl)vinyl)phenethoxy)carbonyl)amino)-3-phenylpropyl)boronic Acid] | 8.32 | < 5.30 | –
Cc1ccc(C[C@H](NC(=O)NCCc2cccc(C=C(C#N)n3cncn3)c2)B(O)O)cc1 [Example 107, (R)-(1-(3-(3-(2-cyano-2-(1H-1,2,4-triazol-1-yl)vinyl)phenethyl)ureido)-2-(p-tolyl)ethyl)boronic Acid] | 7.64 | < 5.30 | –
CCN(CC)C(=O)C(C#N)=Cc1ccc2c(c1)CN(CC(=O)N[C@@H](Cc1ccc(C)cc1)B(O)O)CC2 [Example 108, (R)-(1-(2-(7-(2-cyano-3-(diethylamino)-3-oxoprop-1-en-1-yl)-3,4-dihydroisoquinolin-2(1H)-yl)acetamido)-2-(p-tolyl)ethyl)boronic Acid] | 7.46 | < 5.30 | –
CCN(CC)C(=O)C(C#N)=Cc1ccc2c(c1)CN(CC(=O)N[C@@H](Cc1ccccc1)B(O)O)CC2 [Example 109, (R)-(1-(2-(7-(2-cyano-3-(diethylamino)-3-oxoprop-1-en-1-yl)-3,4-dihydroisoquinolin-2(1H)-yl)acetamido)-2-phenylethyl)boronic Acid] | 8.12 | 7.11 | –
